# Legend:
# [1] = system: birds and ducks; details: in vivo; cited from earlier work
# [2] = system: silver scurf on potato tubers; assay: Field trial 2010/2011 Germany: Proradix in combination with Imazalil, affection by silver scurf after storage; assay type: in vivo, Helminthosporium solani; details: exclusively Imazalil at the laying and the storage; vs untreated potatoes; FIG. 5 third column
# Experimental: For the treatment of the seed potato at or before the laying into the ground soil Proradix is used as a liquid mordant [Proradix WG (LF 4816-00); Sourcon […] GmbH & Co. KG, Tübingen, Germany], according to the information of the manufacturer in a concentration of 60 g/ha via the spraying method by using a ULV spraying device. Before the storage of the potatoes 20 g of Proradix WG is dissolved in a maximum of 2 l of water per barrel. The application onto the potatoes is also effected by means of a ULV spraying device. The laying of the potato and, if applicable, the treatment with Proradix and/or Imazalil is carried out in springtime and the harvest and storage and, if applicable, the treatment with Proradix and/or Imazalil is carried out in fall of the same year. In a field trial conducted in the years of 2010 and 2011 in Germany according to the EPPO guidelines it was examined in detail, whether Proradix can also be effectively used in combination with the chemical of Imazalil. For this purpose a part of the potatoes remain untreated, a part was treated with the chemical of Imazalil at the laying, and a part was treated at the laying and also before the storage with the chemical of Imazalil, and yet another part was treated at the laying with Imazalil and before the storage with Proradix.
# [3] = system: Helminthosporium solani; assay: Field trial 2010/2011 Netherlands: production of spores of the silver scurf pathogen on the potato tuber; assay type: in vivo; details: treatment of the potato before the storage; FIG. 2
# Experimental: (§1) For the treatment of the seed potato at or before the laying into the ground soil Proradix is used as a liquid mordant [Proradix WG (LF 4816-00); Sourcon […] GmbH & Co. KG, Tübingen, Germany], according to the information of the manufacturer in a concentration of 60 g/ha via the spraying method by using a ULV spraying device. Before the storage of the potatoes 20 g of Proradix WG is dissolved in a maximum of 2 l of water per barrel. The application onto the potatoes is also effected by means of a ULV spraying device. The laying of the potato and, if applicable, the treatment with Proradix and/or Imazalil is carried out in springtime and the harvest and storage and, if applicable, the treatment with Proradix and/or Imazalil is carried out in fall of the same year. In a further field trial conducted in the years of 2010/2011 in the Netherlands according to the EPPO guidelines the influence of Proradix in comparison to the chemical standard of Imazalil on the production of spores of the fungal pathogen of Helminthosporium solani, the initiator of the silver scurf, and the rate of germination of the spores on the potato tuber was examined.
# [4] = system: fish; details: in vivo; cited from earlier work
# [5] = system: Helminthosporium solani; assay: Field trial 2010/2011 Netherlands: rate of germination of the spores on the potato tuber; assay type: in vivo; details: use of Imazalil; FIG. 3 fourth column
# Experimental: as §1
compound,measurement,setting,value
C=CCOC(Cn1ccnc1)c1ccc(Cl)cc1Cl (centres unmarked) [Imazalil],effect on birds and ducks,[1],causes damages
same,affection by silver scurf after the storage,[2],significantly diminished reduction
same,formation of spores,[3],comparable
same,toxicity for fish,[4],toxic
same,share of spores able to germinate,[5],half

# From patent US10433556B2, “Treatment and/or prophylaxis of storage diseases of harvested material” (priority 2011, dated 2019)
